Data: article PMC7036801, “Synthesis of New Cisplatin Derivatives from Bile Acids” (Molecules, 2020)

Legend:
[1] = system: T-lymphoblastic leukemia (CEM); experiment: Cytotoxicity assay (Alamar Blue), CEM; type: cell-based, human; conditions: CEM cells, 72 h of treatment, in DMF
Protocol: (§1) All new platinum(II) complexes were screened for cytotoxic activity against following tumor cell lines: T-lymphoblastic leukemia (CEM), epithelial breast carcinoma (MCF7), and cervical carcinoma cell lines (HeLa) (Table 2). A control of cytotoxicity was done with normal human fibroblasts (BJ) and human umbilical vein endothelial cells (HUVEC). The cytotoxicity of all substances in BJ and HUVEC was very similar. […] Its sensitivity against HeLa cell line (7.0 µM) was better than that of cisplatin (11.4 µM). However, the toxicity of 23a against normal human cells (BJ and HUVEC) was similar to that of cisplatin. […] Taking into account lack of activity of cholic and hyodeoxycholic acids-based complexes at studied concentrations (against all tested cell lines IC50 > 50 µM) we can suppose that modifications of bile acids should be focused on the most lipophilic lithocholic acid derivatives. The results presented here provide an inspiration for further studies in this area.
(§2) Cisplatin derivatives were evaluated for their cytotoxic activities in vitro in following cell lines derived from various tumors: T-lymphoblastic leukemia (CEM), epithelial breast carcinoma (MCF7) and cervical carcinoma cell lines (HeLa) (all from ECACC, UK) and also in normal human fibroblasts (BJ; from ATCC, USA). Human umbilical vein endothelial cells (HUVEC) were a kind gift from Prof Jitka Ulrichová (Medical Faculty, Palacký University, Olomouc, Czech Republic). HUVEC were grown in ECPM medium (Provitro, Berlin, Germany). Six serial 3-fold dilutions in triplicate of each drug in DMF was administered in every cell line for 72 h. Alamar Blue dye was used for staining of living cells only. IC50 values (50% inhibitory concentrations) were calculated as the proportions of surviving cells. A detailed procedure for the cytotoxicity assay was described previously, except for using Alamar Blue dye instead of Calcein AM [37]. Briefly, the percentage of surviving cells in each well was calculated by dividing the intensity of the fluorescence signals from the exposed wells by the intensity of signals from control wells and multiplying by 100. These ratios were then used to construct dose–response curves, from which IC50 values, i.e., concentrations of the respective compounds that were lethal to 50% of the tumor cells, were calculated. The results obtained from cytotoxicity assays are shown in Table 2 (mean values ± SD obtained from three independent experiments performed in triplicate).

[2] = system: epithelial breast carcinoma (MCF7); experiment: Cytotoxicity assay (Alamar Blue), MCF7; type: cell-based, human; conditions: MCF7 cells, 72 h of treatment, in DMF
Protocol: as §1, §2

[3] = system: cervical carcinoma cell lines (HeLa); experiment: Cytotoxicity assay (Alamar Blue), HeLa; type: cell-based, human; conditions: HeLa cells, 72 h of treatment, in DMF
Protocol: as §1, §2

[4] = system: normal human fibroblasts (BJ); experiment: Cytotoxicity assay (Alamar Blue), BJ; type: cell-based; conditions: BJ cells, 72 h of treatment, in DMF
Protocol: as §1, §2

[5] = system: human umbilical vein endothelial cells (HUVEC); experiment: Cytotoxicity assay (Alamar Blue), HUVEC; type: cell-based; conditions: 72 h of treatment, in DMF
Protocol: as §1, §2

[6] = test done at temperature 37 °C due to solubility problems

| Molecule | IC50 ([1]; mean ± S.D.) [µM] | IC50 ([2]; mean ± S.D.) [µM] | IC50 ([3]; mean ± S.D.) [µM] | IC50 ([4]; mean ± S.D.) [µM] | IC50 ([5]; mean ± S.D.) [µM] | melting point [°C] | also measured |
| --- | --- | --- | --- | --- | --- | --- | --- |
| N.N.[Cl][Pt][Cl] [cisplatin] | 0.8 ± 0.1 | 7.7 ± 1.7 | 11.4 ± 3.8 | 6.9 ± 0.9 | 5.5 ± 1.1 | – | – |
| cis-Dichloro-24-[(N-3′-aminoprop-1′-yl-κN)aminocholan-3α-ol-κN]platinum(II) [23a] | 3.6 ± 0.1 | 7 ± 0.5 | 7 ± 0.2 | 6.3 ± 0.8 | 6.9 ± 0.6 | – | – |
| C[C@H](CCCNCCN)[C@H]1CC[C@H]2[C@@H]3CCC4C[C@H](O)CC[C@]4(C)[C@H]3CC[C@]12C (stereo partly drawn) | – | – | – | – | – | 107 to 110 | – |
| cis-Dichloro-24-[(N-2′-aminoeth-1′-yl-κN)aminocholane-3α,12α-diol-κN]platinum(II) [22b] | 37.1 ± 6.8 | 20.5 ± 3.1 | 35.5 ± 5.3 | 36.6 ± 5.1 | 38.2 ± 0.6 | – | – |
| C[C@H](CCCNCCCN)[C@H]1CC[C@H]2[C@@H]3CCC4C[C@H](O)CC[C@]4(C)[C@H]3C[C@H](O)[C@]12C (stereo partly drawn) | – | – | – | – | – | 64 to 66 | – |
| cis-Dichloro-24-[(N-2′-aminoeth-1′-yl-κN)aminocholan-3α-ol-κN]platinum(II) [22a] | – | – | – | – | – | – | IC50 [1, 6]: 40.2 ± 2.6 µM; IC50 [2, 6]: > 50 µM; IC50 [3, 6]: > 50 µM; IC50 [4, 6]: > 50 µM; IC50 [5, 6]: > 50 µM |
| C[C@H](CCCNCCCN)[C@H]1CC[C@H]2[C@@H]3CCC4C[C@H](O)CC[C@]4(C)[C@H]3CC[C@]12C (stereo partly drawn) | – | – | – | – | – | 92 to 94 | – |
| C[C@H](CCCNCCN)[C@H]1CC[C@H]2[C@@H]3C[C@H](O)C4C[C@H](O)CC[C@]4(C)[C@H]3CC[C@]12C (stereo partly drawn) | – | – | – | – | – | 72 to 74 | – |
| C[C@H](CCCNCCN)[C@H]1CC[C@H]2[C@@H]3CCC4C[C@H](O)CC[C@]4(C)[C@H]3C[C@H](O)[C@]12C (stereo partly drawn) | – | – | – | – | – | 70 to 72 | – |
| cis-Dichloro-24-[(N-3′-aminoprop-1′-yl-κN)aminocholane-3α,12α-diol-κN]platinum(II) [23b] | 31.6 ± 3.5 | 23.3 ± 4.7 | 36.2 ± 4.3 | 42.5 ± 3.2 | 34.4 ± 5.6 | – | – |
